The text below walks through data of paper PMC5218480 (PLoS ONE, 2017).

The assay deals with MV-4-11 cells. Briefly: Gene expression microarray analysis (Affymetrix PrimeView) and GSEA. Particulars: MV-4-11 cells, 48 hours. The assay is classed as cell-based, human. Further details: RFU PODN (11730768_x_at) / Fold change /veh PODN (11730768_x_at) / RFU LINC00158 (11744669_a_at) / Fold change /veh LINC00158 (11744669_a_at) / RFU DUSP10 (11751237_a_at) / Fold change /veh DUSP10 (11751237_a_at) / RFU ID3 (11757404_x_at) / Fold change /veh ID3 (11757404_x_at) / RFU PLEKHG5 (11737974_s_at) / Fold change /veh PLEKHG5 (11737974_s_at) / RFU LRRC4B (11730491_at) / Fold change /veh LRRC4B (11730491_at) / RFU GIMAP4 (11747438_a_at) / Fold change /veh GIMAP4 (11747438_a_at) / RFU KRT8 (11758183_x_at) / Fold change /veh KRT8 (11758183_x_at) / RFU CNN1 (11734310_a_at) / Fold change /veh CNN1 (11734310_a_at) / RFU VPS37D (11726825_at) / Fold change /veh VPS37D (11726825_at) / RFU C10orf10 (11716522_x_at) / Fold change /veh C10orf10 (11716522_x_at) / RFU KIR2DL2 /// KIR2DL4 /// KIR2DL5A /// KIR2DL5B /// KIR2DS1 /// KIR2DS2 /// KIR2DS3 /// KIR2DS4 /// KIR3DL3 /// KIR3DL3 /// KIR3DS1 (11738374_at) / Fold change /veh KIR2DL2 /// KIR2DL4 /// KIR2DL5A /// KIR2DL5B /// KIR2DS1 /// KIR2DS2 /// KIR2DS3 /// KIR2DS4 /// KIR3DL3 /// KIR3DL3 /// KIR3DS1 (11738374_at) / RFU C1QL1 (11718748_at) / Fold change /veh C1QL1 (11718748_at) / RFU TMPRSS4 (11747572_a_at) / Fold change /veh TMPRSS4 (11747572_a_at) / RFU HAMP (11756126_x_at) / Fold change /veh HAMP (11756126_x_at) / RFU RNFT2 (11725882_a_at) / Fold change /veh RNFT2 (11725882_a_at) / RFU NR4A2 (11747474_a_at) / Fold change /veh NR4A2 (11747474_a_at) / RFU ABCC12 (11746883_a_at) / Fold change /veh ABCC12 (11746883_a_at) / RFU TMEM136 (11760407_x_at) / Fold change /veh TMEM136 (11760407_x_at) / RFU CLDN22 /// WWC2 (11732394_at) / Fold change /veh CLDN22 /// WWC2 (11732394_at) / RFU HLA-DPB1 (11760878_x_at) / Fold change /veh HLA-DPB1 (11760878_x_at) / RFU SPINT1 (11716480_a_at) / Fold change /veh SPINT1 (11716480_a_at) / RFU GAP43 (11754022_s_at) / Fold change /veh GAP43 (11754022_s_at) / RFU A4GNT (11735810_at) / Fold change /veh A4GNT (11735810_at) / RFU PRB3 (11715151_x_at) / Fold change /veh PRB3 (11715151_x_at) / RFU TUBB4B (11761932_at) / Fold change /veh TUBB4B (11761932_at) / RFU CAPN14 (11732068_a_at) / Fold change /veh CAPN14 (11732068_a_at) / RFU TMCC2 (11721928_a_at) / Fold change /veh TMCC2 (11721928_a_at) / RFU IRGQ (11745062_a_at) / Fold change /veh IRGQ (11745062_a_at) / RFU FAM174B (11720279_a_at) / Fold change /veh FAM174B (11720279_a_at) / RFU TMPRSS4 (11748680_a_at) / Fold change /veh TMPRSS4 (11748680_a_at) / RFU FAM212B (11763350_a_at) / Fold change /veh FAM212B (11763350_a_at) / RFU PLEKHG5 (11743358_a_at) / Fold change /veh PLEKHG5 (11743358_a_at) / RFU ZSCAN30 (11745921_a_at) / Fold change /veh ZSCAN30 (11745921_a_at) / RFU CMKLR1 (11741424_a_at) / Fold change /veh CMKLR1 (11741424_a_at) / RFU LOC101060620 /// MAPK8IP1 (11723275_at) / Fold change /veh LOC101060620 /// MAPK8IP1 (11723275_at) / RFU SPTSSB (11747773_x_at) / Fold change /veh SPTSSB (11747773_x_at) / RFU PRSS12 (11739890_at) / Fold change /veh PRSS12 (11739890_at) / RFU BIN1 (11741810_x_at) / Fold change /veh BIN1 (11741810_x_at) / RFU WNT11 (11732464_a_at) / Fold change /veh WNT11 (11732464_a_at) / RFU C10orf10 (11716521_a_at) / Fold change /veh C10orf10 (11716521_a_at) / RFU C5orf56 (11738089_at) / Fold change /veh C5orf56 (11738089_at) / RFU CYB561 (11721691_x_at) / Fold change /veh CYB561 (11721691_x_at) / RFU ANKRD19P (11752326_a_at) / Fold change /veh ANKRD19P (11752326_a_at) / RFU OR2T12 /// OR2T33 /// OR2T8 (11738714_s_at) / Fold change /veh OR2T12 /// OR2T33 /// OR2T8 (11738714_s_at) / RFU VCAN (11748164_a_at) / Fold change /veh VCAN (11748164_a_at) / RFU JSRP1 (11732532_at) / Fold change /veh JSRP1 (11732532_at) / RFU KRTAP10-11 (11738290_x_at) / Fold change /veh KRTAP10-11 (11738290_x_at) / RFU MYO3A (11730013_a_at) / Fold change /veh MYO3A (11730013_a_at) / RFU EBF3 (11725865_a_at) / Fold change /veh EBF3 (11725865_a_at) / RFU CAMK2N1 (11719241_x_at) / Fold change /veh CAMK2N1 (11719241_x_at) / RFU C5orf56 (11738088_a_at) / Fold change /veh C5orf56 (11738088_a_at) / RFU OLFML3 (11715873_a_at) / Fold change /veh OLFML3 (11715873_a_at) / RFU LOC100653217 /// NTM (11731650_a_at) / Fold change /veh LOC100653217 /// NTM (11731650_a_at) / RFU MAPK11 (11762145_a_at) / Fold change /veh MAPK11 (11762145_a_at) / RFU FIZ1 (11724087_x_at) / Fold change /veh FIZ1 (11724087_x_at) / RFU OASL (11726364_x_at) / Fold change /veh OASL (11726364_x_at) / RFU SOX15 (11748057_x_at) / Fold change /veh SOX15 (11748057_x_at) / RFU CD79A (11719716_a_at) / Fold change /veh CD79A (11719716_a_at) / RFU HIST1H1D (11736915_at) / Fold change /veh HIST1H1D (11736915_at) / RFU CASKIN2 (11723855_a_at) / Fold change /veh CASKIN2 (11723855_a_at) / RFU LOC730098 (11760151_x_at) / Fold change /veh LOC730098 (11760151_x_at) / RFU OR4N2 (11742367_at) / Fold change /veh OR4N2 (11742367_at) / RFU PRRT2 (11749266_a_at) / Fold change /veh PRRT2 (11749266_a_at) / RFU SNX32 (11753110_a_at) / Fold change /veh SNX32 (11753110_a_at) / RFU CDHR5 (11726645_a_at) / Fold change /veh CDHR5 (11726645_a_at) / RFU RCAN1 (11760418_a_at) / Fold change /veh RCAN1 (11760418_a_at) / RFU FAM167A (11723789_a_at) / Fold change /veh FAM167A (11723789_a_at) / RFU FAM26E (11764081_at) / Fold change /veh FAM26E (11764081_at) / RFU ISYNA1 (11749810_s_at) / Fold change /veh ISYNA1 (11749810_s_at) / RFU ACY1 (11761880_at) / Fold change /veh ACY1 (11761880_at) / RFU 11764098_at / Fold change /veh 11764098_at / RFU SAMD14 (11745864_x_at) / Fold change /veh SAMD14 (11745864_x_at) / RFU NPB (11741838_a_at) / Fold change /veh NPB (11741838_a_at) / RFU TMPRSS6 (11731388_a_at) / Fold change /veh TMPRSS6 (11731388_a_at) / RFU KRTAP10-2 (11738614_at) / Fold change /veh KRTAP10-2 (11738614_at) / RFU ARHGAP8 /// PRR5-ARHGAP8 (11727945_x_at) / Fold change /veh ARHGAP8 /// PRR5-ARHGAP8 (11727945_x_at) / RFU KRTAP5-7 /// NADSYN1 (11734609_at) / Fold change /veh KRTAP5-7 /// NADSYN1 (11734609_at) / RFU RASL12 (11751679_a_at) / Fold change /veh RASL12 (11751679_a_at) / RFU CDKN2B (11736163_a_at) / Fold change /veh CDKN2B (11736163_a_at) / RFU PRF1 (11729649_at) / Fold change /veh PRF1 (11729649_at) / RFU, ZNF638 /// ZNF638-IT1 / Fold change vs veh, ZNF638 /// ZNF638-IT1 / RFU, PANK3 / Fold change vs veh, PANK3 / RFU, SH3YL1 / Fold change vs veh, SH3YL1 / RFU, ZEB2 / Fold change vs veh, ZEB2 / RFU, NRIP1 / Fold change vs veh, NRIP1 / RFU, PTTG1IP / Fold change vs veh, PTTG1IP / RFU, CAPN2 / Fold change vs veh, CAPN2 / RFU, MED14 / Fold change vs veh, MED14 / RFU, SNORA58 / Fold change vs veh, SNORA58 / RFU, C1orf63 / Fold change vs veh, C1orf63 / RFU, LRRFIP1 / Fold change vs veh, LRRFIP1 / RFU, NDUFAF7 / Fold change vs veh, NDUFAF7 / RFU, SLC12A2 / Fold change vs veh, SLC12A2 / RFU, IBTK / Fold change vs veh, IBTK / RFU, ESF1 / Fold change vs veh, ESF1 / Fold change vs veh, TMEM50B / RFU, TAOK1 / Fold change vs veh, TAOK1 / RFU, ACBD3 / Fold change vs veh, ACBD3 / RFU, TMA16 / Fold change vs veh, TMA16 / RFU, RWDD3 / Fold change vs veh, RWDD3 / RFU, BCAT1 / Fold change vs veh, BCAT1 / RFU, EDEM3 / Fold change vs veh, EDEM3 / RFU, TMEM33 / Fold change vs veh, TMEM33 / RFU, WDR75 / Fold change vs veh, WDR75 / RFU, AHCTF1 / Fold change vs veh, AHCTF1 / RFU, TFRC / Fold change vs veh, TFRC / RFU, ZDHHC17 / Fold change vs veh, ZDHHC17 / RFU, NOM1 / Fold change vs veh, NOM1 / RFU, ARL8B / Fold change vs veh, ARL8B / RFU, ZBTB11 / Fold change vs veh, ZBTB11 / RFU, TAMM41 / Fold change vs veh, TAMM41 / RFU, KIAA1704 /// LOC100996395 / Fold change vs veh, KIAA1704 /// LOC100996395 / RFU, ING1 / Fold change vs veh, ING1 / RFU, TRMT61B / Fold change vs veh, TRMT61B / RFU, FUBP3 / Fold change vs veh, FUBP3 / RFU, TP53 / Fold change vs veh, TP53 / RFU, TNKS2 / Fold change vs veh, TNKS2 / RFU, ZFP14 / Fold change vs veh, ZFP14 / RFU, ACTR2 / Fold change vs veh, ACTR2 / RFU, PPP3R1 / Fold change vs veh, PPP3R1 / RFU, PIK3R1 / Fold change vs veh, PIK3R1 / RFU, HNRNPA1 / Fold change vs veh, HNRNPA1 / RFU, RNF170 / Fold change vs veh, RNF170 / RFU, ZNF28 / Fold change vs veh, ZNF28 / RFU, RNGTT / Fold change vs veh, RNGTT / RFU, OGT / Fold change vs veh, OGT / RFU, BRD1 / Fold change vs veh, BRD1 / RFU, MARS / Fold change vs veh, MARS / RFU, ZNF655 / Fold change vs veh, ZNF655 / RFU, FAHD1 / Fold change vs veh, FAHD1 / RFU, BDP1 / Fold change vs veh, BDP1 / RFU, LRRCC1 / Fold change vs veh, LRRCC1 / RFU, ARID1A / Fold change vs veh, ARID1A / RFU, ZNF146 / Fold change vs veh, ZNF146 / RFU, ZNF330 / Fold change vs veh, ZNF330 / RFU, GPN3 / Fold change vs veh, GPN3 / RFU, C9orf123 / Fold change vs veh, C9orf123 / RFU, N4BP2L2 / Fold change vs veh, N4BP2L2 / RFU, ARFIP1 / Fold change vs veh, ARFIP1 / RFU, FAM179B / Fold change vs veh, FAM179B / RFU, BCL10 / Fold change vs veh, BCL10 / RFU, UHRF1BP1L / Fold change vs veh, UHRF1BP1L / RFU, BET1 / Fold change vs veh, BET1 / RFU, CNOT2 / Fold change vs veh, CNOT2 / RFU, ZNF268 / Fold change vs veh, ZNF268 / Fold change vs veh, ZNF507 / RFU, DGCR2 / Fold change vs veh, DGCR2 / RFU, WDSUB1 / Fold change vs veh, WDSUB1 / Fold change vs veh, HSP90B1 /// MIR3652 / RFU, ADSS / Fold change vs veh, ADSS / RFU, GK / Fold change vs veh, GK / RFU, ZNF148 / Fold change vs veh, ZNF148 / RFU, TAF9 / Fold change vs veh, TAF9 / RFU, SLC1A5 / Fold change vs veh, SLC1A5 / RFU, SLMO2 / Fold change vs veh, SLMO2 / RFU, ABCC4 / Fold change vs veh, ABCC4 / RFU, LOC101060439 /// RAP1B / Fold change vs veh, LOC101060439 /// RAP1B / RFU, RFX7 / Fold change vs veh, RFX7 / RFU, GTPBP10 / Fold change vs veh, GTPBP10 / RFU, CNEP1R1 / Fold change vs veh, CNEP1R1 / RFU, BIVM-ERCC5 /// ERCC5 / Fold change vs veh, BIVM-ERCC5 /// ERCC5 / RFU, ILF3 / Fold change vs veh, ILF3 / RFU 11762660_at / Fold change /veh 11762660_at / RFU VCAN (11757783_s_at) / Fold change /veh VCAN (11757783_s_at) / RFU DDX43 (11728927_at) / Fold change /veh DDX43 (11728927_at) / RFU KRT8 (11758188_x_at) / Fold change /veh KRT8 (11758188_x_at) / RFU NKD1 (11759106_at) / Fold change /veh NKD1 (11759106_at) / RFU SRD5A1 (11742802_a_at) / Fold change /veh SRD5A1 (11742802_a_at) / RFU TPSAB1 /// TPSB2 (11721975_s_at) / Fold change /veh TPSAB1 /// TPSB2 (11721975_s_at) / RFU GSTM3 (11746129_a_at) / Fold change /veh GSTM3 (11746129_a_at) / RFU IL23R (11737362_x_at) / Fold change /veh IL23R (11737362_x_at) / RFU TMEM51 (11727254_a_at) / Fold change /veh TMEM51 (11727254_a_at) / RFU PIWIL2 (11732686_x_at) / Fold change /veh PIWIL2 (11732686_x_at) / RFU ORM1 (11744905_x_at) / Fold change /veh ORM1 (11744905_x_at) / RFU CCDC152 (11743942_at) / Fold change /veh CCDC152 (11743942_at) / RFU ECM1 (11717891_a_at) / Fold change /veh ECM1 (11717891_a_at) / RFU IL23R (11748794_a_at) / Fold change /veh IL23R (11748794_a_at) / RFU TNFAIP8L3 (11732012_x_at) / Fold change /veh TNFAIP8L3 (11732012_x_at) / RFU MBOAT4 (11741988_at) / Fold change /veh MBOAT4 (11741988_at) / RFU 11764193_at / Fold change /veh 11764193_at / RFU TMEM53 (11763286_at) / Fold change /veh TMEM53 (11763286_at) / RFU MAGEB2 (11727129_at) / Fold change /veh MAGEB2 (11727129_at) / RFU TMEM200A (11744735_a_at) / Fold change /veh TMEM200A (11744735_a_at) / RFU CCDC152 (11751479_a_at) / Fold change /veh CCDC152 (11751479_a_at) / RFU FAM211A (11726209_a_at) / Fold change /veh FAM211A (11726209_a_at) / RFU RGS16 (11746705_a_at) / Fold change /veh RGS16 (11746705_a_at) / RFU VCAN (11755009_s_at) / Fold change /veh VCAN (11755009_s_at) / RFU RHOB (11743442_s_at) / Fold change /veh RHOB (11743442_s_at) / RFU RGS16 (11720943_a_at) / Fold change /veh RGS16 (11720943_a_at) / RFU RGS16 (11720944_at) / Fold change /veh RGS16 (11720944_at) / RFU, VPS4B / Fold change vs veh, VPS4B / RFU, CREB1 / Fold change vs veh, CREB1 / RFU, DNAJC13 / Fold change vs veh, DNAJC13 / RFU, GNAQ / Fold change vs veh, GNAQ / RFU, CDK5R1 / Fold change vs veh, CDK5R1 / RFU, ZRANB3 / Fold change vs veh, ZRANB3 / RFU, CUL4A / Fold change vs veh, CUL4A / RFU, CCNY / Fold change vs veh, CCNY / RFU, UFL1 / Fold change vs veh, UFL1 / RFU, COG3 / Fold change vs veh, COG3 / RFU, DIAPH2 / Fold change vs veh, DIAPH2 / RFU, SKA2 / Fold change vs veh, SKA2 / RFU, AFF3 / Fold change vs veh, AFF3 / RFU, LMF1 / Fold change vs veh, LMF1 / RFU, IPO11 / Fold change vs veh, IPO11 / RFU, DFFB / Fold change vs veh, DFFB / RFU, FOXP1 / Fold change vs veh, FOXP1 / RFU, CARD8 / Fold change vs veh, CARD8 / RFU, STRN3 / Fold change vs veh, STRN3 / RFU, ADK / Fold change vs veh, ADK / RFU, RASSF2 / Fold change vs veh, RASSF2 / RFU, WIPF1 / Fold change vs veh, WIPF1 / RFU, LARP1B / Fold change vs veh, LARP1B / RFU, RASA1 / Fold change vs veh, RASA1 / RFU, RB1 / Fold change vs veh, RB1 / RFU, PPFIA1 / Fold change vs veh, PPFIA1 / RFU, MAT2A / Fold change vs veh, MAT2A / RFU, CCT5 / Fold change vs veh, CCT5 / RFU, WDR92 / Fold change vs veh, WDR92 / RFU, CUX1 / Fold change vs veh, CUX1 / RFU, TTC7A / Fold change vs veh, TTC7A / RFU, TMEM135 / Fold change vs veh, TMEM135 / RFU, DEPTOR / Fold change vs veh, DEPTOR / RFU, CPM / Fold change vs veh, CPM / RFU, DNAJB6 / Fold change vs veh, DNAJB6 / RFU, CACNA2D3 / Fold change vs veh, CACNA2D3 / RFU, DTX4 / Fold change vs veh, DTX4 / RFU, TFCP2 / Fold change vs veh, TFCP2 / RFU, GMCL1 /// GMCL1P1 / Fold change vs veh, GMCL1 /// GMCL1P1 / RFU, AEBP2 / Fold change vs veh, AEBP2 / RFU, SNHG1 /// SNORD22 /// SNORD25 /// SNORD26 /// SNORD27 /// SNORD28 /// SNORD29 /// SNORD31 / Fold change vs veh, SNHG1 /// SNORD22 /// SNORD25 /// SNORD26 /// SNORD27 /// SNORD28 /// SNORD29 /// SNORD31 / Fold change (Aza/veh), C12orf56 (ProbeSet 11735607_a_at) / Fold change (ACY-1035/veh), C12orf56 (ProbeSet 11735607_a_at) / Fold change (Aza/veh), FGFR1OP (ProbeSet 11751329_s_at) / Fold change (ACY-1035/veh), FGFR1OP (ProbeSet 11751329_s_at) / Fold change (Aza/veh), VPS36 (ProbeSet 11739960_a_at) / Fold change (ACY-1035/veh), VPS36 (ProbeSet 11739960_a_at) / RFU SYPL1 (11715823_x_at) / Fold change /veh SYPL1 (11715823_x_at) / RFU IGFBP7 (11715501_s_at) / Fold change /veh IGFBP7 (11715501_s_at) / RFU REEP3 (11722064_at) / Fold change /veh REEP3 (11722064_at) / RFU IGLL1 (11728026_x_at) / Fold change /veh IGLL1 (11728026_x_at): dose or concentration left out as unconfirmed.

For the compound `Nc1ncn([C@@H]2O[C@H](CO)[C@@H](O)[C@H]2O)c(=O)n1` [azacitidine], the “Fold change /veh ZSCAN30 (11745921_a_at)” value is 1.18.
